Assay results: article PMC7868322, “Rational Design of A Novel Small-Molecule HIV-1 Inactivator Targeting Both gp120 and gp41 of HIV-1” (Frontiers in Pharmacology, 2021)
Where “and” joins values, the source holds several entries; their conditions need not be identical. Equal values may be shown once. Read-outs that look alike come from different tables or passages of the source.

Key:
93/BR/020 (F, R5 and X4) = assay: Inhibition of HIV-1 clinical virus infection; assay type: cell-based; conditions: Human immunodeficiency virus 1; HIV-1 clinical virus 93/BR/020 (F, R5 and X4); means ± SD
[1] = system: T20-resistant virus V38A N42T; assay type: cell-based, HIV-1; conditions: inactivation of cell-free virions, means ± SD
[2] = system: T2635-resistant virus K90E N126K; assay type: cell-based, HIV-1; conditions: inactivation of cell-free virions, means ± SD
96USSN20 (A, R5 and X4) = assay: Inhibition of HIV-1 clinical virus infection; assay type: cell-based; conditions: Human immunodeficiency virus 1; HIV-1 clinical virus 96USSN20 (A, R5 and X4); means ± SD
[3] = target: T1, 6HB formation between N36 and C34 (Human immunodeficiency virus type 1 group M subtype B, UniProt P04578); assay: N-PAGE inhibition of six-helix bundle formation; assay type: biochemical, HIV-1; conditions: peptides 40 μM final
T1 construct: purchased NIH AIDS Reagent Program
Experimental: The sample was mixed with Tris-glycine native sample buffer and then loaded onto the 18% Tris-glycine gel. Gel electrophoresis was carried out with 125 V constant voltage at room temperature for 3 h.

HIV-1 IIIB gp120 = HIV-1 IIIB gp120 (Human immunodeficiency virus type 1 group M subtype B, UniProt P04578); assay: ELISA inhibition of gp120 CD4bs-targeting mAbs binding to gp120; design: polystyrene plates were coated with 50 µL of HIV-1 IIIB gp120
Experimental: Flow cytometry was used to detect compounds that competed with gp120 CD4bs-targeting mAbs for binding to gp120. In brief, 100 µL of FD016 at a concentration of 100 µM or PBS was first incubated with CHO-WT cells expressing HIV-1 HXB2 gp120 for 30 min at room temperature, and then gp120 CD4bs-targeting mAbs (5 μg/mL, 100 µL) and FITC-labeled goat anti-human secondary antibody were added successively. After three washes, the cells were analyzed with flow cytometry. ELISA was carried out to detect the activity of compounds that inhibit the binding of soluble CD4 (sCD4) or gp120 CD4bs-targeting mAbs to gp120 as previously described ([Si et al., 2004]; [Curreli et al., 2014]). Briefly, for sCD4 and gp120 binding, 50 µL of HIV-1 IIIB gp120 at 0.5 μg/mL was captured on polystyrene plate coated with sheep anti-gp120 antibody D7324 (Aalto Bio Reagents). sCD4 (ImmunoDiagnostics, Inc.) at 200 ng/mL was then added in the presence of an equal volume of different concentrations of compounds or PBS and incubated at 37°C for 1 h. Next, rabbit anti-sCD4 IgG (ImmunoDiagnostics, Inc.) at 250 ng/mL was added and incubated at 37°C for another 1 h, followed by goat anti-rabbit IgG-biotin (Invitrogen), streptavidin-horseradish peroxidase (Invitrogen). For gp120 CD4bs-targeting mAbs and gp120 binding, polystyrene plates were coated with 50 µL of HIV-1 IIIB gp120 (2 μg/mL in 0.1 mol/L sodium bicarbonate buffer (pH 8.6)) at 4°C overnight and then blocked with PBS containing 2% BSA at 37°C for 2 h. Next, gp120 CD4bs-targeting mAbs at 2 μg/mL were added in the presence of an equal volume of FD028 at different concentrations and incubated at 37°C for 1 h. Horseradish peroxidase (HRP)-labeled goat-anti-human IgG (Sigma-Aldrich) was added sequentially. After adding 3,3′,5,5′-tetramethylbenzidine chromogen substrate and sulfuric acid, the absorbance at 450 nm (A450) was recorded using a Microplate Reader (Tecan, Männedorf, Switzerland).

HIV-1 Bal = assay: Inactivation of cell-free HIV-1 virions (PEG-6000 precipitation, p24 ELISA); assay type: cell-based; conditions: Human immunodeficiency virus 1, BAL; cell-free virions, 1 h at 4°C, PEG-6000 precipitation; read-out: EC50, inactivation of HIV-1 Bal
[4] = system: T2635-resistant virus Q66R N113E; assay type: cell-based, HIV-1; conditions: inactivation of cell-free virions, means ± SD
[5] = target: T2, 6HB formation between N36 and C34-biotin (Human immunodeficiency virus type 1 group M subtype B, UniProt P04578); assay: ELISA inhibition of six-helix bundle formation; assay type: biochemical, HIV-1; conditions: IC50, inhibition of 6HB formation between N36 and C34-biotin, peptides 0.5 μM final
T2 construct: preincubated with N36 peptide (2 μM, 50 μL) at 37°C for 1 h; purchased NIH AIDS Reagent Program
Experimental: An inhibitor (compound or C-peptide control) at graded concentrations was preincubated with N36 peptide (2 μM, 50 μL) at 37°C for 1 h. […] Subsequently, 50 μL of the mixture were added to the wells of the NC-1-coated plate, followed by incubation for 1 h. Then, HRP-labeled streptavidin and the substrate were added sequentially. The optical density at 450 nm was measured using a microplate reader (Tecan, Männedorf, Switzerland).

[6] = system: T2635-resistant virus Q66R N126K; assay type: cell-based, HIV-1; conditions: inactivation of cell-free virions, means ± SD
[7] = system: T20-resistant virus V38A N42D; assay type: cell-based, HIV-1; conditions: means ± SD
KNH1135 (A, R5) = assay: microbe, parasite or virus in culture; assay type: cell-based, HIV-1; conditions: Human immunodeficiency virus 1; inactivation of cell-free virions, clinical virus KNH1135 (A, R5); means ± SD
92/TH/009 (A/E, R5) = assay: Inactivation of cell-free HIV-1 clinical virus; assay type: cell-based; conditions: Human immunodeficiency virus 1, inactivation of cell-free virions, means ± SD
[8] = system: T2635-resistant virus H3C; assay: microbe, parasite or virus in culture; assay type: cell-based, HIV-1; conditions: Human immunodeficiency virus 1
[9] = system: T2635-resistant virus H3C; assay type: cell-based, HIV-1; conditions: T2635-resistant virus H3C (A6V L33S Q66R N126K H132Q E136G); means ± SD
HIV-1 IIIB = assay: Inactivation of cell-free HIV-1 virions (PEG-6000 precipitation, p24 ELISA); assay type: cell-based; conditions: Human immunodeficiency virus 1, IIIB; cell-free virions, 1 h at 4°C, PEG-6000 precipitation; read-out: EC50, inactivation of HIV-1 IIIB
92/UG/024 (D, X4) = assay: Inhibition of HIV-1 clinical virus infection; assay type: cell-based; conditions: Human immunodeficiency virus 1; HIV-1 clinical virus 92/UG/024 (D, X4); means ± SD
[10] = system: T2635-resistant virus N113E; assay type: cell-based, HIV-1; conditions: means ± SD
[11] = system: T20-resistant virus V38A N42T; assay type: cell-based, HIV-1; conditions: means ± SD

SMILES: CC1(C)CC(NC(=O)C(=O)Nc2ccc(Cl)c(F)c2)CC(C)(C)N1C(=O)COc1ccc(CCN2C(=O)/C(=C/c3ccc(-c4ccc(Cl)c(C(=O)O)c4)o3)SC2=S)cc1 [FD028, (Z)-2-Chloro-5-(5-((3-(4-(2-(4-(2-((4-Chloro-3-Fluorophenyl)amino)-2-oxoacetamido)-2,2,6,6-Tetramethylpiperidin-1-yl)-2-oxoethoxy)phenethyl)-4-oxo-2-Thioxothiazolidin-5-ylidene)methyl)furan-2-yl)benzoic Acid]
- IC50 (93/BR/020 (F, R5 and X4)): 380 ± 30 nM
- EC50 [1]: 320 ± 110 nM
- EC50 [2]: 490 ± 60 nM
- IC50 (96USSN20 (A, R5 and X4)): 200 ± 10 nM
- IC50 [3]: 100000 to 200000 nM
- IC50 (HIV-1 IIIB gp120; ELISA, mAb 2G12, read-out: IC50, inhibition of 2G12 binding to gp120): 1420 nM
- IC50 (HIV-1 IIIB gp120; ELISA, mAb 654-30D, read-out: IC50, inhibition of 654-30D binding to gp120): 700 nM
- IC50 (HIV-1 IIIB gp120; ELISA, mAb B12, read-out: IC50, inhibition of B12 binding to gp120): 460 nM
- IC50 (HIV-1 IIIB gp120; ELISA, mAb HJ16, read-out: IC50, inhibition of HJ16 binding to gp120): 770 nM
- IC50 (HIV-1 IIIB gp120; ELISA, mAb N6, read-out: IC50, inhibition of N6 binding to gp120): 1230 nM
- IC50 (HIV-1 IIIB gp120; ELISA, mAb VRC01, read-out: IC50, inhibition of VRC01 binding to gp120): 420 nM
- IC50 (HIV-1 IIIB gp120; ELISA, range over the mAbs, read-out: IC50, inhibition of binding of gp120 to different gp120 CD4bs-targeting mAbs): 420 to 1420 nM
- IC50 (HIV-1 IIIB gp120; IC50, inhibition of 3BNC117 binding to gp120, ELISA, mAb 3BNC117): 520 nM
- EC50 (HIV-1 Bal): 660 nM
- EC50 [4]: 360 ± 30 nM
- IC50 [5]: 2030 nM and ~2000 nM
- EC50 [6]: 140 ± 70 nM
- IC50 [7]: 480 ± 110 nM
- EC50 (KNH1135 (A, R5)): 1230 ± 320 nM
- EC50 (92/TH/009 (A/E, R5)): 260 ± 60 nM
- EC50 [8]: 1200 ± 140 nM
- IC50 [9]: 270 ± 60 nM
- EC50 (HIV-1 IIIB): 710 nM
- IC50 (92/UG/024 (D, X4)): 1040 ± 160 nM
- IC50 [10]: 570 ± 130 nM
- IC50 [11]: 950 ± 60 nM
